Data as given in patent publication US20230257758A1, “PLANT METABOLITE-MEDIATED INDUCTION OF BIOFILM FORMATION IN SOIL BACTERIA TO INCREASE BIOLOGICAL NITROGEN FIXATION AND PLANT NITROGEN ASSIMILATION” (The Regents of the University of California, priority 2020, published 2023).

Assays:
Glucanoacetobacter = experiment: Biofilm formation in suspension of double-labelled (mCherry, gumDpro::GFP) Glucanoacetobacter; type: cell-based, Glucanoacetobacter diazotrophicus; details: addition of compound to a suspension of Glucanoacetobacter (FIGS. 5A, 5B)
Text: (§1) FIGS. 5A-5C. Effects of the addition of luteolin or apigenin to biofilm formation in Glucanoacetobacter diazotrophicus. FIG. 5A: Effects of the addition of luteolin to biofilm formation in a Glucanoacetobacter diazotrophicus suspension.
The activity of the exudate or of candidate molecules can also be assessed in vivo, e.g., by using transgenic N2-fixing bacteria such as Glucanoacetobacter diazotrophicus that constitutively express a label such as mCherry. The bacteria can also express labeled components of biofilms, e.g., in bacteria transformed with gumDpro::GFP. The double labeling in such bacteria allows the visualization of the bacteria and, independently, the development of biofilm in the presence or absence of the exudate or candidate molecule.
Our results indicated clustering among common moieties, particularly among heterooctacyclic compounds (e.g., Staurosporine) and […] (e.g., luteolin, apigenin) and anthraquinones (e.g. 2H03 and 4G03—Papaverine). (FIG. 4). […] Therefore we assessed the effects of luteolin and apigenin in vivo. First we assessed the formation of chemical-induced formation of biofilm in bacterial cultures. For this, we generated transgenic Glucanoacetobacter constitutively expressing mCherry (transformed with pSEVAGeng-Luc-mCherry) in order to visualize mCherry fluorescent bacteria. Then we transformed the mCherry expressing bacteria with gumDpro::GFP. GumD encodes for components of the bacterial Exopolysacharides (EPS)] in order to visualize GFP-labelled biofilms. Thus the double labelling allowed as to follow the development of biofilm while visualizing the bacteria.

[1] = test system: Gluconacetobacter diazotrophicus; experiment: Microtiter-plate biofilm formation assay (crystal violet staining) with rice root exudates; type: cell-based; details: for Biofilm production (natural flavonoids, FIG. 7): exposed for 3 days to Oryza sativa root exudates supplemented with […] of the indicated compounds; for Biofilm formation in chemical screening (normalized to DMSO control): wild-type rice (Kitaake) root exudate 198 μL + 2 μL of 10 mM compound, 3 days, crystal violet staining; for Biofilm formation, comparison of flavones (FIG. 11): 3 days with Oryza sativa root exudates supplemented with indicated concentrations
Procedure: FIG. 3. […] Biofilm formation of Glucanoacetobacter diazotrophicus was assessed incubated with wild-type rice (Oryza sativa Kitaake) root exudates supplemented with 2 μl of each of 500 flavonoid and derivated compounds of a chemical library (FL-500, TimTec) and 700 compounds (natural and synthetic) (NPDepo library). Chemical screening was performed in a 96-well plate with each well containing: 198 μL of the Kitaake exudate and 2 μL of the 10 mM compound from the chemical libraries. An equal volume (2 μL) of DMSO was added to each well and served as the negative control. Gluconacetobacter diazotrophicus was added to the final OD600=0.01 to each well and incubated in a shaker at 150 rpm, 28° C. for 3 days before biofilm quantification by crystal violet staining. The value of each well in biofilm quantification was normalized to that of the DMSO control in each plate (DMSO=1). The heatmap was generated by the mean value of 3 biological replicates for each compound.
FIG. 7. Effect of natural flavonoids on biofilm formation in Glucanoacetobacter diazotrophicus. Induction of biofilm production in Gluconacetobacter diazotrophicus exposed to Oryza sativa root exudates supplemented with […] of the indicated compounds. Controls are exudates without compound and exudates with DMSO.
FIG. 11. Effects of Naringenin, Apigenin, Apigenin-7-Glucoside, and Luteolin on biofilm formation on Gluconacetobacter diazotrophicus. Values are the Mean±SD (n=6).
Any of a number of assays can be used to assess plants generated using the present methods, as well as to assess candidate plant molecules (e.g., other flavones) for their ability to upregulate biofilm production and assimilation of N2-fixing bacteria. For example, to confirm that the plants are exuding increased levels of the one or more flavones, root exudates from the plants can be isolated and the quantities and identities of the flavones determined, e.g., using mass spectrometry. In addition, the exudates (or other candidate biofilm-inducing molecules) can be incubated with N2-fixing bacteria, e.g., Glucanoacetobacter diazotrophicus, and the biofilm produced by the bacteria assessed. The biofilm can be quantified, e.g., by incubating the exudate (or candidate molecule or molecules) and bacteria in the wells of a microtiter plate, removing the cultures from the plate, washing the wells, adding a solution of crystal violet, rinsing and drying the plate, and then adding ethanol and measuring absorbance at, e.g., 540 nm. See, e.g. Example 1 and www.jove.com/video/2437/microtiter-dish-biofilm-formation-assay, the entire disclosure of which is herein incorporated by reference.
To assess the effect(s) of different chemicals on biofilm formation in N2-fixing bacteria, we used a published protocol (www.jove.com/video/2437/microtiter-dish-biofilm-formation-assay). Basically, bacteria were grown in a 96-well plate in a rich-nutrient medium at 28° C. The compound to be tested was added and the culture was grown overnight. Plant exudates and 2 μl of the compound were added to the well and the bacteria grown for 3 days under shaking (200 rpm). After 3 days, the planktonic bacterial cultures were discarded and the wells were thoroughly washed with water. A solution of 1% of crystal violet was added to each well of the plate and the plate shaken for 10-15 min at 200 rpm. The plates are rinsed 3-4 times with water (by submerging the plants in a tub of water), shaken vigorously and blotted on a stack of paper towels (to eliminate excess of cells and dye), the microliter plate was placed upside down and air dried. To quantify the amount of biofilm that adhered to the well walls, 200 μl of ethanol were added to each well, the plates shacked at 200 rpm, at 28° C. for 10-15 min. The absorbance of the solution was measured at 540 nm, using ethanol as a blank (FIG. 1). […]

[2] = test system: Burkholderia vietnamensis; experiment: Luteolin-induced biofilm production in N2-fixing bacteria; type: cell-based
Procedure: (§2) FIG. 8. Induction of biofilm production in facultative N2-fixing bacteria.
(§3) FIGS. 9A-9C. Effect of luteolin on biofilm production in Azoarcus sp. CIB (FIG. 9A), Azoarcus communis (FIG. 9B), and Burkholderia vietnamensis (FIG. 9C).
(§4) The effects of luteolin on the induction of biofilm production was tested in a number of N2-fixing bacteria (FIG. 8). While Burkholderia vietnamensis and Azoarcus sp. […] Also the response of the bacteria to luteolin was not uniform; Azoarcus sp.

Azoarcus sp. CIB = experiment: as above; type: cell-based
Procedure: as §2, §3, §4

Azoarcus communis = experiment: as above; type: cell-based
Procedure: as §2, §3, §4

[3] = test system: Herbaspirillum seropedicae; experiment: as above; type: cell-based
Procedure: as §2, §4

Azospirillum sp. 8510 = experiment: as above; type: cell-based
Procedure: as §2, §4

[4] = test system: Glucanoacetobacter diazotrophicus; experiment: Acetylene reduction assay (ARA) for bacterial N2 fixation; type: cell-based; details: Kitaake rice root exudates and 100 μM, 3 days at 28° C., then acetylene 4 days
Procedure: as §1
FIGS. 12A-12C. Effects of flavones (Naringenin, Apigenin, Apigenin-7-Glucoside) on bacterium N2-fixation. FIG. 12A: Activity was assessed by measuring the conversion of acetylene to ethylene by Gas Chromatography. FIG. 12B: Assimilation of Nitrogen by Kitaake rice plants, incubated with Glucanoacetobacter in the absence (DMSO) or presence of Apigenin. Nitrogen assimilation was assessed by feeding ^15N2 and measuring assimilated inorganic ^15N in leaf tissues after 2 weeks, using Mass Spectroscopy. […]
The N2-fixing activity of the bacteria can be assessed, e.g., using an acetylene reduction assay (ARA), in which bacteria are cultured in the presence of acetylene gas, and the conversion of acetylene to ethylene measured by, e.g., gas chromatography.
To assess the effects of the flavones on bacteria N2 fixation, we used the acetylene reduction assay (ARA), where gas acetylene is added, and the resulting ethylene is measured by Gas Chromatography. […] Ten % of the air in the tube was replaced by acetylene, the cells incubated for 4 days and ethylene was measured by gas chromatography (FIG. 12A). […]

[5] = test system: Kitaake rice plants, incubated with Glucanoacetobacter; experiment: Assimilation of 15N2-derived nitrogen by rice plants incubated with bacteria; type: in vivo, Oryza sativa Kitaake; details: rice seedlings in soil with bacteria, 15N2 gas added; versus DMSO control
Procedure: (§5) FIGS. 12A-12C. Effects of flavones (Naringenin, Apigenin, Apigenin-7-Glucoside) on bacterium N2-fixation. FIG. 12A: Activity was assessed by measuring the conversion of acetylene to ethylene by Gas Chromatography. FIG. 12B: Assimilation of Nitrogen by Kitaake rice plants, incubated with Glucanoacetobacter in the absence (DMSO) or presence of Apigenin. Nitrogen assimilation was assessed by feeding ^15N2 and measuring assimilated inorganic ^15N in leaf tissues after 2 weeks, using Mass Spectroscopy. FIG. 12C: Kitaake rice roots incubated with Glucanoacetobacter in the absence (DMSO) or presence of Apigenin.
The genetically modified plants themselves can also be assessed in any of a number of ways. For example, plants can be grown in the presence of fluorescently labeled N2-fixing bacteria, and the adherence of the bacteria to the plant root hairs, either attached to the root surface or present inside the plant tissues, can be determined. The plants can also be assessed by determining the number of tillers and/or the seed yield. In some embodiments, the assimilation of N2 fixed by bacteria in the soil is assessed by, e.g., growing the plants in the presence of ^15N2 gas, and then measuring the level of ^15N assimilated in the plant leaves, e.g., using Mass spectroscopy. […]

[6] = test system: Kitaake rice roots incubated with Glucanoacetobacter; experiment: Microscopy of adherence of fluorescent bacteria to rice roots; type: in vivo, Oryza sativa Kitaake; details: versus DMSO
Procedure: as §5
The genetically modified plants themselves can also be assessed in any of a number of ways. For example, plants can be grown in the presence of fluorescently labeled N2-fixing bacteria, and the adherence of the bacteria to the plant root hairs, either attached to the root surface or present inside the plant tissues, can be determined. The plants can also be assessed by determining the number of tillers and/or the seed yield. In some embodiments, the assimilation of N2 fixed by bacteria in the soil is assessed by, e.g., growing the plants in the presence of ^15N2 gas, and then measuring the level of ^15N assimilated in the plant leaves, e.g., using Mass spectroscopy.
No bacteria was seen on the control treatments. […]

In the case of `O=c1cc(-c2ccc(O)c(O)c2)oc2cc(O)cc(O)c12` [luteolin], the “Induction of biofilm formation in bacterial suspension” value (“Induction of biofilm formation” for short) (Glucanoacetobacter) was “induction of biofilm formation by increasing amounts of luteolin”, the “Biofilm production (natural flavonoids, FIG. 7)” value [1] was “induced a significant increase in biofilm production” and the “Biofilm formation in chemical screening (normalized to DMSO control)” value [1] was “biofilm inducers”. The Luteolin-induced biofilm synthesis [2] was “displayed a luteolin-induced biofilm synthesis”, the Luteolin-induced biofilm synthesis (Azoarcus sp. CIB; Azoarcus sp. CIB) was “displayed a luteolin-induced biofilm synthesis” and the “Response to luteolin relative to Burkholderia vietnamensis” value (Azoarcus sp. CIB; Azoarcus sp. CIB versus Burkholderia vietnamensis) was “lesser response to luteolin than Burkholderia vietnamensis”. For the same compound, the Luteolin-induced biofilm production (Azoarcus communis) was “did not show an enhanced biofilm production”, the Luteolin-induced biofilm production [3] was “did not show an enhanced biofilm production” and the Luteolin-induced biofilm production (Azospirillum sp. 8510) was “did not show an enhanced biofilm production”.

In the case of `O=c1c(O)c(-c2ccc(O)c(O)c2)oc2cc(O)cc(O)c12` [Quercetin], the “Biofilm production (natural flavonoids, FIG. 7)” value [1] was “Only luteolin induced a significant increase”.

With `O=c1c(O)c(-c2cc(O)c(O)c(O)c2)oc2cc(O)cc(O)c12` [Myricetin] the “Biofilm production (natural flavonoids, FIG. 7)” value [1] was “Only luteolin induced a significant increase”.

In the case of `O=C1C[C@@H](c2ccc(O)c(O)c2)Oc2cc(O)cc(O)c21` [Eriodictyol], the “Biofilm production (natural flavonoids, FIG. 7)” value [1] was “Only luteolin induced a significant increase”.

In the case of `O=c1cc(-c2ccc(O)cc2)oc2cc(O[C@@H]3O[C@H](CO)[C@@H](O)[C@H](O)[C@H]3O)cc(O)c12` [apigenin-7-O-glucoside], the “Induction of biofilm formation” value (Glucanoacetobacter) was “showed the induction of biofilm formation”, the “Biofilm formation, comparison of flavones (FIG. 11)” value (shortened to “Biofilm formation, comparison”) [1] was “strongest biofilm induction” and the “Nitrogen fixation (conversion of acetylene to ethylene, gas chromatography)” value [4] was “promote nitrogen fixation”.

For `O=C1C[C@@H](c2ccc(O)cc2)Oc2cc(O)cc(O)c21` [Naringenin], the “Biofilm production (natural flavonoids, FIG. 7)” value [1] was “Only luteolin induced a significant increase”.

In the case of `O=c1cc(-c2ccc(O)cc2)oc2cc(O)cc(O)c12` [apigenin], the “Induction of biofilm formation” value (Glucanoacetobacter) was “showed the induction of biofilm formation”, the “Biofilm formation, comparison” value [1] was “strongest biofilm induction” and the “Biofilm formation, comparison” value ([1]; listed as Apigenin) was “induced a larger biofilm production than Luteolin”. For the same compound, the “Biofilm formation in chemical screening (normalized to DMSO control)” value [1] was “biofilm inducers”, the “15N assimilated in the leaves” value [5] was “significant increase in ^15N into Nitrogen compounds” and the “Nitrogen fixation (conversion of acetylene to ethylene, gas chromatography)” value [4] was “promote nitrogen fixation”. For the same compound, the “Adherence of bacteria to the root surface and inside the root tissue” value [6] was “Adherence of bacteria to the root surface and inside the root tissue can be seen”.
